For this assay, the target named is CXCR3 (Macaca fascicularis, UniProt A0A2K5UV19). Nature of the assay: functional cellular assay measuring calcium flux in CXCR3 transfected cells (block of CXCR3/IP-10 interaction). The format is cell-based, Cyno. Particulars: IP-10 induced intracellular calcium flux; Cyno-CHO cells stably expressing recombinant CXCR3 and G-alpha-16; IP-10 at EC80; read-out: IC50. In outline:
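Cyno-CHO cells stably expressing CXCR3 and G-alpha-16, loaded with Ca-4 dye in HBSS/10 mM HEPES pH 7.4 with 2 mM probenecid for 1 h at 37° C. Compound (final 10 microM) preincubated 15 min at room temperature, then IP-10 at EC80 added; calcium flux read at 480/540 nm.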

Chain of CXCR3 (A0A2K5UV19 entry or part of it): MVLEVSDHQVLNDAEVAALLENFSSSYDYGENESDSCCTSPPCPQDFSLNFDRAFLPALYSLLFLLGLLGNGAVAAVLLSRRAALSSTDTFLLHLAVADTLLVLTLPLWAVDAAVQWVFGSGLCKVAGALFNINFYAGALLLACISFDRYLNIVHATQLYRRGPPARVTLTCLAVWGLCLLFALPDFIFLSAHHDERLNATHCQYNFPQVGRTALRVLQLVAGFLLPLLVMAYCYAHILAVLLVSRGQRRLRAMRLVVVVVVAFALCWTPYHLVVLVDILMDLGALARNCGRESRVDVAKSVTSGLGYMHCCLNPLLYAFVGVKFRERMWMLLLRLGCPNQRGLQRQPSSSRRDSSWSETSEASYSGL

As for `COc1ncc(-c2cc(F)ccc2N2CCN(C(=O)Cn3cnc4cccnc43)CC2)cn1` [1-{4-[4-fluoro-2-(2-methoxypyrimidin-5-yl)phenyl]piperazin-1-yl}-2-(3H-imidazo[4,5-b]pyridin-3-yl)ethanone], the half-maximal inhibitory concentration (IC50) came to 53 nM. In the case of `CC1CN(c2ccc(C(F)(F)F)cc2-c2cnc(N3CCC(S(C)(=O)=O)CC3)nc2)CCN1C(=O)CN1Cc2ccccc2C1=O` (stereo not drawn) [2-(2-{2-methyl-4-[2-{2-[4-(methylsulfonyl)piperidin-1-yl]pyrimidin-5-yl}-4-(trifluoromethyl)phenyl]piperazin-1-yl}-2-oxoethyl)-2,3-dihydro-1H-isoindol-1-one] it was 7 nM; in that of `COc1ncc(-c2ccccc2N2CCN(C(=O)CN3Cc4ccccc4C3=O)CC2)cn1` [2-(2-{4-[2-(2-Methoxy-pyrimidin-5-yl)-phenyl]-piperazin-1-yl}-2-oxo-ethyl)-2,3-dihydro-isoindol-1-one], 17 nM. For `Cc1cc(C)n(CC(=O)N2CCN(c3ccccc3-c3cnc(N4CCCC(F)C4)nc3)CC2)n1` (stereo not drawn) [2-(3,5-Dimethyl-pyrazol-1-yl)-1-(4-{2-[2-(3-fluoro-piperidin-1-yl)-pyrimidin-5-yl]-phenyl}-piperazin-1-yl)-ethanone], the IC50 was 8 nM. As to `Cc1cc(C)n(CC(=O)N2CCN(c3ccccc3-c3cnc(N4CCC(O)C4)nc3)CC2)n1` (stereo not drawn) [2-(3,5-Dimethyl-pyrazol-1-yl)-1-(4-{2-[2-(3-hydroxy-pyrrolidin-1-yl)-pyrimidin-5-yl]-phenyl}-piperazin-1-yl)-ethanone], the IC50 was found to be 9 nM. For `Cc1cc(C)n(CC(=O)N2CCN(c3ccccc3-c3cnc(N4CCCC(C(F)(F)F)C4)nc3)CC2)n1` (stereo not drawn) [2-(3,5-Dimethyl-pyrazol-1-yl)-1-(4-{2-[2-(3-trifluoromethyl-piperidin-1-yl)-pyrimidin-5-yl]-phenyl}-piperazin-1-yl)-ethanone], the IC50 worked out at 12 nM. Regarding `Cc1cc(C)n(CC(=O)N2CCN(c3ccccc3-c3cnc(N4CCC(F)CC4)nc3)CC2)n1` [2-(3,5-Dimethyl-pyrazol-1-yl)-1-(4-{2-[2-(4-fluoro-piperidin-1-yl)-pyrimidin-5-yl]-phenyl}-piperazin-1-yl)-ethanone], the IC50 came to 10 nM.

Turning to `Cc1cc(C)n(CC(=O)N2CCN(c3ccccc3-c3cnc(N4CCC(O)CC4)nc3)CC2)n1` [2-(3,5-Dimethyl-pyrazol-1-yl)-1-(4-{2-[2-(4-hydroxy-piperidin-1-yl)-pyrimidin-5-yl]-phenyl}-piperazin-1-yl)-ethanone], the IC50 was found to be 7 nM.

Regarding `Cc1cc(C)n(CC(=O)N2CCN(c3ccccc3-c3cnc(N4CCC(S(C)(=O)=O)CC4)nc3)CC2)n1` [2-(3,5-Dimethyl-pyrazol-1-yl)-1-(4-{2-[2-(4-methanesulfonyl-piperidin-1-yl)-pyrimidin-5-yl]-phenyl}-piperazin-1-yl)-ethanone], the IC50 is 6 nM. Consider `COC1(C)CCN(c2ncc(-c3ccccc3N3CCN(C(=O)Cn4nc(C)cc4C)CC3)cn2)CC1` [2-(3,5-Dimethyl-pyrazol-1-yl)-1-(4-{2-[2-(4-methoxy-4-methyl-piperidin-1-yl)-pyrimidin-5-yl]-phenyl}-piperazin-1-yl)-ethanone], for which the IC50 stood at 33 nM. On to `Cc1cc(C)n(CC(=O)N2CCN(c3ccccc3-c3cnc(N4CCN(C)CC4)nc3)CC2)n1` [2-(3,5-Dimethyl-pyrazol-1-yl)-1-(4-{2-[2-(4-methyl-piperazin-1-yl)-pyrimidin-5-yl]-phenyl}-piperazin-1-yl)-ethanone], for which the IC50 is 40 nM.

For `COC[C@@H]1CCCN1c1ncc(-c2ccccc2N2CCN(C(=O)Cn3nc(C)cc3C)CC2)cn1` [2-(3,5-Dimethyl-pyrazol-1-yl)-1-(4-{2-[2-((S)-2-methoxymethyl-pyrrolidin-1-yl)-pyrimidin-5-yl]-phenyl}-piperazin-1-yl)-ethanone], the IC50 turned out to be 12 nM. Turning to `Cc1cc(C)n(CC(=O)N2CCN(c3ccccc3-c3cnc(N4CCC5CCCCC5C4)nc3)CC2)n1` (stereo not drawn) [2-(3,5-Dimethyl-pyrazol-1-yl)-1-(4-{2-[2-(octahydro-isoquinolin-2-yl)-pyrimidin-5-yl]-phenyl}-piperazin-1-yl)-ethanone], the IC50 came to 21 nM. As for `Cc1cc(C)n(CC(=O)N2CCN(c3ccccc3-c3cnc(Oc4cccnc4)nc3)CC2)n1` [2-(3,5-Dimethyl-pyrazol-1-yl)-1-(4-{2-[2-(pyridin-3-yloxy)-pyrimidin-5-yl]-phenyl}-piperazin-1-yl)-ethanone], the figure is 56 nM. `Cc1cc(C)n(CC(=O)N2CCN(c3ccccc3-c3cnc(N4C[C@@H]5C[C@H]4CO5)nc3)CC2)n1` [2-(3,5-Dimethyl-pyrazol-1-yl)-1-(4-{2-[(1S,4S)-2-(2-oxa-5-aza-bicyclo[2.2.1]hept-5-yl)-pyrimidin-5-yl]-phenyl}-piperazin-1-yl)-ethanone]: the half-maximal inhibitory concentration (IC50) was 14 nM. In the case of `Cc1cc(C)n(CC(=O)N2CCN(c3ccccc3-c3cnc(N4CCC(C(C)(C)O)CC4)nc3)CC2)n1` [2-(3,5-Dimethyl-pyrazol-1-yl)-1-[4-(2-{2-[4-(1-hydroxy-1-methyl-ethyl)-piperidin-1-yl]-pyrimidin-5-yl}-phenyl)-piperazin-1-yl]-ethanone], the half-inhibitory concentration (IC50) was determined as 12 nM.

As to `COc1cccc(-c2ccccc2N2CCN(C(=O)Cn3nc(C)cc3C)CC2)c1` [2-(3,5-Dimethyl-pyrazol-1-yl)-1-[4-(3′-methoxy-biphenyl-2-yl)-piperazin-1-yl]-ethanone], the concentration for half-maximal inhibition (IC50) worked out at 56 nM. For `Cc1ccc(-c2ccccc2N2CCN(C(=O)Cn3nc(C)cc3C)CC2)cc1` [2-(3,5-Dimethyl-pyrazol-1-yl)-1-[4-(4′-methyl-biphenyl-2-yl)-piperazin-1-yl]-ethanone], the half-maximal inhibitory concentration (IC50) worked out at 70 nM. As for `Cc1cc(C)n(CC(=O)N2CCN(c3ccccc3-c3ccc4ccn(C)c4c3)CC2)n1` [2-(3,5-Dimethyl-pyrazol-1-yl)-1-{4-[2-(1-methyl-1H-indol-6-yl)-phenyl]-piperazin-1-yl}-ethanone], the figure is 19 nM. For `Cc1cc(C)n(CC(=O)N2CCN(c3ccccc3-c3ccc4cc[nH]c4c3)CC2)n1` [2-(3,5-Dimethyl-pyrazol-1-yl)-1-{4-[2-(1H-indol-6-yl)-phenyl]-piperazin-1-yl}-ethanone], the half-inhibitory concentration (IC50) came out at 81 nM. Take `Cc1cc(C)n(CC(=O)N2CCN(c3ccccc3-c3cnc(N4CCCOCC4)nc3)CC2)n1` [2-(3,5-Dimethyl-pyrazol-1-yl)-1-{4-[2-(2-[1,4]oxazepan-4-yl-pyrimidin-5-yl)-phenyl]-piperazin-1-yl}-ethanone]: the half-maximal inhibitory concentration (IC50) was found to be 11 nM. With `CCOc1ncc(-c2ccccc2N2CCN(C(=O)Cn3nc(C)cc3C)CC2)cn1` [2-(3,5-Dimethyl-pyrazol-1-yl)-1-{4-[2-(2-ethoxy-pyrimidin-5-yl)-phenyl]-piperazin-1-yl}-ethanone], the IC50 was found to be 18 nM. `CCNc1ncc(-c2ccccc2N2CCN(C(=O)Cn3nc(C)cc3C)CC2)cn1` [2-(3,5-Dimethyl-pyrazol-1-yl)-1-{4-[2-(2-ethylamino-pyrimidin-5-yl)-phenyl]-piperazin-1-yl}-ethanone]: the IC50 was determined as 10 nM.

Regarding `Cc1cc(C)n(CC(=O)N2CCN(c3ccc(C(F)(F)F)cc3-c3cnc(S(C)(=O)=O)nc3)CC2)n1` [2-(3,5-Dimethyl-pyrazol-1-yl)-1-{4-[2-(2-methanesulfonyl-pyrimidin-5-yl)-4-trifluoromethyl-phenyl]-piperazin-1-yl}-ethanone], the concentration for half-maximal inhibition (IC50) is 54 nM. Consider `COc1ncc(-c2cc(C(F)(F)F)ccc2N2CCN(C(=O)Cn3nc(C)cc3C)CC2)cn1` [2-(3,5-Dimethyl-pyrazol-1-yl)-1-{4-[2-(2-methoxy-pyrimidin-5-yl)-4-trifluoromethyl-phenyl]-piperazin-1-yl}-ethanone], for which the IC50 turned out to be 8 nM. In the case of `COc1ncc(-c2ccccc2N2CCN(C(=O)Cn3nc(C)cc3C)CC2)cn1` [2-(3,5-Dimethyl-pyrazol-1-yl)-1-{4-[2-(2-methoxy-pyrimidin-5-yl)-phenyl]-piperazin-1-yl}-ethanone] it was 46 nM.

In the case of `Cc1cc(C)n(CC(=O)N2CCN(c3ccccc3-c3cnc(C)nc3)CC2)n1` [2-(3,5-Dimethyl-pyrazol-1-yl)-1-{4-[2-(2-methyl-pyrimidin-5-yl)-phenyl]-piperazin-1-yl}-ethanone], the IC50 amounted to 67 nM. As for `CNc1ncc(-c2cc(C(F)(F)F)ccc2N2CCN(C(=O)Cn3nc(C)cc3C)CC2)cn1` [2-(3,5-Dimethyl-pyrazol-1-yl)-1-{4-[2-(2-methylamino-pyrimidin-5-yl)-4-trifluoromethyl-phenyl]-piperazin-1-yl}-ethanone], the IC50 was 7 nM.

For the molecule `CNc1ncc(-c2ccccc2N2CCN(C(=O)Cn3nc(C)cc3C)CC2)cn1` [2-(3,5-Dimethyl-pyrazol-1-yl)-1-{4-[2-(2-methylamino-pyrimidin-5-yl)-phenyl]-piperazin-1-yl}-ethanone], the IC50 amounted to 34 nM. With `CSc1ncc(-c2cc(C(F)(F)F)ccc2N2CCN(C(=O)Cn3nc(C)cc3C)CC2)cn1` [2-(3,5-Dimethyl-pyrazol-1-yl)-1-{4-[2-(2-methylsulfanyl-pyrimidin-5-yl)-4-trifluoromethyl-phenyl]-piperazin-1-yl}-ethanone], the concentration for half-maximal inhibition (IC50) came to 5 nM.

With `CSc1ncc(-c2ccccc2N2CCN(C(=O)Cn3nc(C)cc3C)CC2)cn1` [2-(3,5-Dimethyl-pyrazol-1-yl)-1-{4-[2-(2-methylsulfanyl-pyrimidin-5-yl)-phenyl]-piperazin-1-yl}-ethanone], the half-inhibitory concentration (IC50) turned out to be 10 nM. In the case of `Cc1cc(C)n(CC(=O)N2CCN(c3ccc(C(F)(F)F)cc3-c3cnc(N4CCOCC4)nc3)CC2)n1` [2-(3,5-Dimethyl-pyrazol-1-yl)-1-{4-[2-(2-morpholin-4-yl-pyrimidin-5-yl)-4-trifluoromethyl-phenyl]-piperazin-1-yl}-ethanone] it was 8 nM; in that of `Cc1cc(C)n(CC(=O)N2CCN(c3ccccc3-c3cnc(N4CCOCC4)nc3)CC2)n1` [2-(3,5-Dimethyl-pyrazol-1-yl)-1-{4-[2-(2-morpholin-4-yl-pyrimidin-5-yl)-phenyl]-piperazin-1-yl}-ethanone], 9 nM.

Source of the values: patent publication US8450317B2, “CXCR3 receptor antagonists” (Boehringer Ingelheim International GmbH, priority 2009, dated 2013).
